In patent publication US6228877A, “Substituted pyrroles” (Hoffmann-La Roche Inc., priority 1998, dated 2001) one finds IC50 data, which are given here for 26 compounds.

Structures are written as SMILES. Some results are limits rather than exact numbers.

For orientation: IC50 means the concentration needed to halve the response being measured. A lower IC50 goes with greater potency.

This assay relates to epithelial breast carcinoma cell line (MDAMB-435). The assay is described as follows: effect of compounds on growth of epithelial breast carcinoma cell line MDAMB-435 (MTT, 5 days). The note with it: Homo sapiens, MDA-MB-435, 120 h, MDAMB-435 cells, 5 days post drug addition, 0.1% DMSO. The assay is classed as cell-based. As to the method: The epithelial breast carcinoma cell line (MDAMB-435) was purchased from ATCC (American Type Cell Culture Collection) and was grown in culture in medium as recommended by ATCC. For analysis of the effect of various compounds on growth of these cells, the cells were plated at a concentration of 1500 cells/well in a 96 well tissue culture plate ("test plate). The day after the cells were plated, the compounds to be analyzed were dissolved in 100% DMSO (dimethyl sulfoxide) to yield at 10 mM stock solution. Each compound was diluted in H2 O to 1 mM and was added to triplicate wells in the first row of a 96 well master plate which contains medium to yield a final concentration of 40 μM. The compounds were then serially diluted in medium in the "master plate". The diluted compound(s) were then transferred to test plates containing cells. A row of vehicle "control cells" received DMSO. The final concentration of DMSO in each well was 0.1%. 5 days post drug addition, the plate was analyzed as follows:
MTT (3-(4-5 methyl thiazole-2-yl)-2,5-diphenyl tetrazolium bromide; thiazolyl blue) was added to each well to yield a final concentration of 1 mg/ml. The plate was then incubated at 37° C. for 21/2-3 hours. The MTT containing medium was then removed and 50 μl of 100% ethanol was added to each well to dissolve the formazan. The absorbences were then read using an automated plate reader (Bio-tek microplate reader).
IC50 's were calculated using the Reed and Munsch equation, see Am. J. Hygiene Vol. 27 pgs. 493-497, 1938.

On to `CCOc1ccc2c(C3=C(c4cn(C)c5cccc(Br)c45)C(=O)NC3=O)cn(C)c2c1` [Br H H EtO, 3-(4-Bromo-1-methyl-1H-indol-3-yl)-4-(6-ethoxy-1-methyl-1H-indol-3-yl)-pyrrole-2,5-dione], for which the IC50 turned out to be 0.2 µM.
Take `COc1ccc2c(C3=C(c4cn(C)c5cccc(OC)c45)C(=O)NC3=O)cn(C)c2c1` [CH3 O H H CH3 O, 3-(6-Methoxy-1-methyl-1H-indol-3-yl)-4-(4-methoxy-1-methyl-1H-indol-3-yl)-pyrrole-2,5-dione]: the IC50 turned out to be 0.07 µM. This IC50 is about 2.9-fold lower than that of the compound before.
`COc1cccc2c1c(C1=C(c3cn(C)c4cc([N+](=O)[O-])ccc34)C(=O)NC1=O)cn2C` [CH3 O H H NO2, 3-(4-Methoxy-1-methyl-1H-indol-3-yl)-4-(1-methyl-6-nitro-1H-indol-3-yl)-pyrrole-2,5-dione] registered an IC50 of 0.4 µM.
Under `COc1ccc2c(C3=C(c4cn(C)c5cccc(F)c45)C(=O)NC3=O)cn(C)c2c1` [F H H CH3 O, 3-(4-Fluoro-1-methyl-1H-indol-3-yl)-4-(6-methoxy-1-methyl-1H-indol-3-yl)-pyrrole-2,5-dione] stands 0.2 µM; under `CCOc1ccc2c(C3=C(c4cn(C)c5cccc(F)c45)C(=O)NC3=O)cn(C)c2c1` [F H H EtO, 3-(4-Fluoro-1-methyl-1H-indol-3-yl)-4-(6-ethoxy-1-methyl-1H-indol-3-yl)-pyrrole-2,5-dione], 0.032 µM; under `Cn1cc(C2=C(c3cn(C)c4cccc(F)c34)C(=O)NC2=O)c2ccc([N+](=O)[O-])cc21` [F H H NO2, 3-(4-Fluoro-1-methyl-1H-indol-3-yl)-4-(1-methyl-6-nitro-1H-indol-3-yl)-pyrrole-2,5-dione], 0.05 µM.
Consider `Cc1ccc2c(c1)c(C1=C(c3cn(C)c4cc(C)ccc34)C(=O)NC1=O)cn2C` [H CH3 H CH3, 3-(1,6-Dimethyl-1H-indol-3-yl)-4-(1,5-dimethyl-1H-indol-3-yl)-pyrrole-2,5-dione], for which the IC50 came to 0.4 µM.
In turn, `Cc1ccc2c(c1)c(C1=C(c3cn(C)c4cc([N+](=O)[O-])ccc34)C(=O)NC1=O)cn2C` [H CH3 H NO2, 3-(1,5-Dimethyl-1H-indol-3-yl)-4-(1-methyl-6-nitro-1H-indol-3-yl)-pyrrole-2,5-dione] gave an IC50 of 0.13 µM.
With `COc1ccc2c(c1)c(C1=C(c3cn(C)c4cc(OC)ccc34)C(=O)NC1=O)cn2C` [H CH3 O H CH3 O], inhibition was half-maximal at 0.07 µM (IC50).
For `COc1ccc2c(c1)c(C1=C(c3cn(C)c4cc(SC)ccc34)C(=O)NC1=O)cn2C` [H CH3 O H CH3 S, 3-(5-Methoxy-1-methyl-11H-indol-3-yl)-4-(1-methyl-6-methylsulfanyl-1H-indol-3-yl)-pyrrole-2,5-dione], the half-inhibitory concentration (IC50) is 0.2 µM.
The compound `COc1ccc2c(c1)c(C1=C(c3cn(C)c4cc(C#N)ccc34)C(=O)NC1=O)cn2C` [H CH3 O H CN, 3-[4-(5-methoxy-1-methyl-1H-indol-3-yl)-2,5-dioxo-2,5-dihydro-1H-pyrrol-3-yl]-1-methyl-1H-indole-6-carbonitrile] registered an IC50 of 0.07 µM. Against the preceding compound, the IC50 is about 2.9-fold lower.
For the compound `COc1ccc2c(c1)c(C1=C(c3cn(C)c4cc(Cl)ccc34)C(=O)NC1=O)cn2C` [H CH3 O H Cl, 3-(6-Chloro-1-methyl-1H-indol-3-yl)-4-(5-methoxy-1-methyl-1H-indol-3-yl)-pyrrole-2,5-dione], the IC50 was 0.2 µM.
In turn, `CCOc1ccc2c(C3=C(c4cn(C)c5ccc(OC)cc45)C(=O)NC3=O)cn(C)c2c1` [H CH3 O H EtO, 3-(6-Ethoxy-1-methyl-1H-indol-3-yl)-4-(5-methoxy-1-methyl-1H-indol-3-yl)-pyrrole-2,5-dione] showed an IC50 of 0.07 µM.
In turn, `Cc1ccc2c(C3=C(c4cn(C)c5ccc(C#N)cc45)C(=O)NC3=O)cn(C)c2c1` [H CN H CH3, 3-[4-(1,6-Dimethyl-1H-indol-3-yl]-2,5-dioxo-2,5-dihydro-1H-pyrrol-3-yl]1-methyl-1H-indole-5-carbonitrile] yielded an IC50 of 0.4 µM.
`Cn1cc(C2=C(c3cn(C)c4cc([N+](=O)[O-])ccc34)C(=O)NC2=O)c2cc(C#N)ccc21` [H CN H NO2, 1-Methyl-3-[4-(1-methyl-6-nitro-1H-indol-3-yl)-2,5-dioxo-2,5-dihydro-1H-pyrrol-3-yl]-1H-indole-5-carbonitrile]: the midpoint of inhibition, the IC50, lay at 1 µM. Against the preceding compound, the IC50 is about 2.5-fold higher.
Under `Cc1ccc2c(C3=C(c4cn(C)c5ccc(Cl)cc45)C(=O)NC3=O)cn(C)c2c1` [H Cl H CH3, 3-(5-Chloro-1-methyl-1H-indol-3-yl)-4-(1,6-dimethyl-1H-indol-3-yl)-pyrrole-2,5-dione] stands 0.4 µM; under `Cn1cc(C2=C(c3cn(C)c4cc([N+](=O)[O-])ccc34)C(=O)NC2=O)c2cc(Cl)ccc21` [H Cl H NO2, 3-(5-Chloro-1-methyl-1H-indol-3-yl)-4-(l-methyl-6-nitro-1H-indol-3-yl)-pyrrole-2,5-dione], 0.17 µM.
In turn, `Cn1cc(C2=C(c3cn(C)c4cc([N+](=O)[O-])ccc34)C(=O)NC2=O)c2ccc(Br)cc21` [H H Br NO2, 3-(6-Bromo-1-methyl-1H-indol-3-yl)-4-(1-methyl-6-nitro-1H-indol-3-yl)-pyrrole-2,5-dione] registered an IC50 of 0.07 µM.
`Cn1cc(C2=C(c3cn(C)c4cc([N+](=O)[O-])ccc34)C(=O)NC2=O)c2ccc(NC(=O)C(F)(F)F)cc21` [H H CF3 CONH NO2, N-{1-methyl-3-[4-(1-methyl-6-nitro-1H-indol-3-yl)-2,5-dioxo-2,5-dihydro-1H-pyrrol-3-yl]-1H-indol-3-yl}-trifluoroacetamide] showed an IC50 of 0.012 µM.
The compound `Cc1ccc2c(C3=C(c4cn(C)c5cc(C#N)ccc45)C(=O)NC3=O)cn(C)c2c1` [H H CH3 CN, 3-[4-(1,6-dimethyl-1H-indol-3-yl)-2,5-dioxo-2,5-dihydro-1H-pyrrole-3-yl]-1-methyl-1H-indole-6-carbonitrile] returned an IC50 of 0.01 µM.
Turning to `COc1ccc2c(C3=C(c4cn(C)c5cc(NC(C)=O)ccc45)C(=O)NC3=O)cn(C)c2c1` [H H CH3 CONH CH3 O, N-{3-[4-(6-Methoxy-1-methyl-1H-indol-3-yl)-2,5-dioxo-2,5-dihydro-1H-pyrrol-3-yl]-1-methyl-1H-indol-6-yl}-acetamide], 0.07 µM corresponded to half-maximal inhibition (IC50).
The compound `CC(=O)Nc1ccc2c(C3=C(c4cn(C)c5cc([N+](=O)[O-])ccc45)C(=O)NC3=O)cn(C)c2c1` [H H CH3 CONH NO2] registered an IC50 of 0.02 µM.
As for `CNc1ccc2c(C3=C(c4cn(C)c5cc(OC)ccc45)C(=O)NC3=O)cn(C)c2c1` [H H CH3 NH CH3 O, 3-(6-Methoxy-1-methyl-1H-indol-3-yl)-4-(1-methyl-6-methyl-amino-1H-indol-3-yl)-pyrrole-2,5-dione], the IC50 was under 0.01 µM.
As for `Cc1ccc2c(C3=C(c4cn(C)c5cc([N+](=O)[O-])ccc45)C(=O)NC3=O)cn(C)c2c1` [H H CH3 NO2, 3-(1,6-dimethyl-1H-indol-3-yl)-4-(1-methyl-6-nitro-1H-indol-3-yl)-pyrrole-2,5-dione], the IC50 is 0.07 µM.
`COc1ccc2c(C3=C(c4cn(C)c5cc(C)ccc45)C(=O)NC3=O)cn(C)c2c1` [H H CH3 OCH3, 3-(1,6-dimethyl-1H-indol-3-yl)-4-(6-methoxy-1-methyl-1H-indol-3-yl)-pyrrole-2,5-dione] displayed an IC50 of 0.02 µM.
For the compound `COc1ccc2c(C3=C(c4cn(C)c5cc(NC=O)ccc45)C(=O)NC3=O)cn(C)c2c1` [H H CHONH CH3 O], 0.01 µM corresponded to half-maximal inhibition (IC50). Against the preceding compound, the IC50 is about 2-fold lower.
